# Source: US20050106730A1, “Compositions and methods utilizing stable reporter cell lines for detection of pathway-specific signal transduction” (priority 1999, published 2005)
# Experiments:
# [1] = test system: cAMP/CREB pathway (GAL4-CREB fusion); experiment: Luciferase reporter assay in RCLH-CREB stable reporter cells treated with extracellular stimuli; assay type: cell-based, human; conditions: in the presence of 100 uM forskolin, 5 hours
# [2] = test system: MAPK pathway converging on Elk1 (GAL4-Elk1 fusion); experiment: Luciferase reporter assay in RCLH-Elk1 stable reporter cells treated with extracellular stimuli; conditions: separate experiment
Molecule,Stimulation of luciferase expression [1],Activation of MAPK pathways [2]
"CCCCCCCCCCCCCC(=O)O[C@@H]1[C@@H](C)[C@@]2(O)[C@@H](C=C(CO)C[C@]3(O)C(=O)C(C)=C[C@@H]23)[C@@H]2C(C)(C)[C@]12OC(C)=O [PMA, phorbol 12-myristate 13-acetate]",approximately 70 fold,
TGF-α: growth factor found to activate MAPK pathways,,also activates MAPK pathways
